# Paper PMC7931236, “Nonclassical antagonism between human lysozyme and AMPs against Pseudomonas aeruginosa” (FEBS Open Bio, 2021)
# Read-outs that look alike come from different tables or passages of the source. Where a SMILES comes first, the peptide text is derived from it. Bridges are numbered along the chain shown (N, C = ends). Where no end group is shown, it is not given here.
# How the values were obtained:
# [1] = system: P. aeruginosa strain Xen05
# Protocol: (§1) The mucoid bioluminescent P. aeruginosa strain Xen05 was purchased from Caliper life Sciences, Inc. The nonmucoid bioluminescent strain H1001 was the kind gift of Robert Hancock (University of British Columbia, Vancouver, BC, Canada). Both strains were stored as glycerol stocks at −80 °C. Recombinant hLYS and freeze‐dried Micrococcus luteus were purchased from Sigma Millipore (Burlington, MA, USA). Protegrin 1 AMP (PTG1) and HB71 peptides (> 95% purity) were obtained from Peptide 2.0. LL‐37, Melittin, and Tet009 peptides (> 95% purity) were purchased from GenScript (Piscataway, NJ, USA). Human beta defensin 3 AMP (hBD3) peptide was purchased from AnaSpec. Peptide stock solutions were stored at −20 °C. All other reagents and materials were purchased from Fisher Scientific (Waltham, MA, USA).
# (§2) We analyzed the dose–response potency of each AMP against both strains via a well‐validated luminescence assay. Hundred microlitre of exponential phase cells (5 × 10^6 cells/mL) in dextrose/tris (DT) buffer (20 mM dextrose, 100 mM Tris, pH 7.4) were incubated with a 1 : 2 dilution series of each AMP in white, flat‐bottomed, 96‐well plates at 37 °C for 4 h. Culture luminescence was then quantified by imaging with a CCD camera (Bio‐Rad ChemiDoc XRS System, Hercules, CA, USA). Measurements were normalized to the no‐treatment controls on the same plate, and potency was quantified by a 3‐parameter logistic regression of luminescence versus AMP concentration, yielding EC50 values (Fig. S1). Importantly, the luminescence of these P. aeruginosa strains is known to correlate with bacterial viability. Assays were done in technical triplicate or quadruplicate and repeated at least twice.
# [2] = system: P. aeruginosa strain H1001
# Protocol: as §1, §2
# [3] = system: P. aeruginosa strain Xen05; format: cell-based, Pseudomonas aeruginosa; conditions: for Interaction with hLYS against mucoid strain Xen05: class by FICI, checkerboard with hLYS
# Protocol: (§3) Checkerboard, or 2‐D MIC, assays were performed analogous to the single agent dose–response studies above, except that 1 : 2 serial dilutions of hLYS were made across the rows of a 96‐well plate, and 1 : 2 serial dilutions of the AMP were made down the columns of the same plate, such that each well contained a unique concentration mixture of the two agents. Controls without treatment (growth control) and without bacteria (sterility control) were included on all plates. Assays were repeated as three independent trials (biological replicates), and results are the average of all measurements.
# (§4) To quantify antibacterial interactions, fractional inhibitory concentrations (FIC) and FIC index values (FICI) were calculated as described elsewhere, though in this case using EC50 values in place of conventional growth/no growth visual observations. Briefly, the FIC for one agent is the ratio of its […]. The corresponding FIC values for the two agents in each row and column, respectively, of a checkerboard plate may be summed, and the lowest FIC sum on the plate is designated the FICI.
# (§5) Based on the EC50 values of AMP monotherapies, we designed checkerboard assays wherein antibacterial interactions between hLYS and each AMP were quantified. Classical drug interactions such as synergy, additivity, or antagonism manifest characteristic trends across a given checkerboard assay plate, where FICI < 0.5 is defined as synergy, 0.5 ≤ FICI < 4 is defined as additivity, and FICI ≥ 4 is defined as antagonism. Nonclassical interactions, as observed in some of our checkerboard results, might include a concentration‐dependent switch from synergy (or additivity) to antagonism. In extreme cases, we observed inversion of the dose–response curves for specific combinations and concentration ranges of our antibacterial agents, as discussed below.
# [4] = system: P. aeruginosa strain H1001; format: cell-based, Pseudomonas aeruginosa; conditions: for Interaction with hLYS against nonmucoid strain H1001: class by FICI, checkerboard with hLYS
# Protocol: as §3, §4, §5
# [5] = Fig. S1 panels A-F, M, single agent dose response, technical triplicate or quadruplicate, repeated at least twice
# [6] = single agent, luminescence, DT buffer (20 mM dextrose, 100 mM Tris, pH 7.4), 5 × 10^6 cells/mL, 37 °C, 4 h, 3-parameter logistic regression, technical triplicate or quadruplicate, repeated at least twice
# [7] = Fig. S1 panels G-L, N, single agent dose response, technical triplicate or quadruplicate, repeated at least twice
# [8] = AMP combined with hLYS, FIC from EC50 values (50% luminescence reduction), lowest FIC sum on plate, three independent trials
compound,measurement,setting,value
CC[C@H](C)[C@H](NC(=O)[C@H](CCCCN)NC(=O)[C@H](CCC(=O)O)NC(=O)[C@H](CCCCN)NC(=O)[C@H](CO)NC(=O)[C@H](CCCCN)NC(=O)[C@H](CCCNC(=N)N)NC(=O)[C@H](Cc1ccccc1)NC(=O)[C@H](Cc1ccccc1)NC(=O)[C@H](CC(=O)O)NC(=O)CNC(=O)[C@H](CC(C)C)NC(=O)[C@@H](N)CC(C)C)C(=O)NCC(=O)N[C@@H](CCCCN)C(=O)N[C@@H](CCC(=O)O)C(=O)N[C@@H](Cc1ccccc1)C(=O)N[C@@H](CCCCN)C(=O)N[C@@H](CCCNC(=N)N)C(=O)N[C@H](C(=O)N[C@H](C(=O)N[C@@H](CCC(N)=O)C(=O)N[C@@H](CCCNC(=N)N)C(=O)N[C@H](C(=O)N[C@@H](CCCCN)C(=O)N[C@@H](CC(=O)O)C(=O)N[C@@H](Cc1ccccc1)C(=O)N[C@@H](CC(C)C)C(=O)N[C@@H](CCCNC(=N)N)C(=O)N[C@@H](CC(N)=O)C(=O)N[C@@H](CC(C)C)C(=O)N[C@H](C(=O)N1CCC[C@H]1C(=O)N[C@@H](CCCNC(=N)N)C(=O)N[C@H](C(=O)N[C@@H](CCC(=O)O)C(=O)N[C@@H](CO)C(=O)O)[C@@H](C)O)C(C)C)[C@@H](C)CC)C(C)C)[C@@H](C)CC [LL37],"95% confidence intervals for EC50 values, Xen05",[1]; [5],4.8 to 5.1 µg/mL
same,EC50 Xen05,[1]; [6],5.0 µg/mL
same,"95% confidence intervals for EC50 values, H1001",[2]; [7],5.7 to 6.6 µg/mL
same,EC50 H1001,[2]; [6],6.1 µg/mL
same,FICI Xen05,[3]; [8],0.5 ± 0.2
same,FICI H1001,[4]; [8],0.5 ± 0.2
"CC(C)C[C@H](NC(=O)[C@H](CCCNC(=N)N)NC(=O)CNC(=O)CNC(=O)[C@@H](N)CCCNC(=N)N)C(=O)N[C@H]1CSSC[C@@H](C(=O)N[C@H](C(=O)NCC(=O)N[C@@H](CCCNC(=N)N)C(=O)O)C(C)C)NC(=O)[C@H](C(C)C)NC(=O)[C@@H]2CSSC[C@H](NC(=O)[C@H](Cc3ccc(O)cc3)NC1=O)C(=O)N[C@@H](CCCNC(=N)N)C(=O)N[C@@H](CCCNC(=N)N)C(=O)N[C@@H](CCCNC(=N)N)C(=O)N[C@@H](Cc1ccccc1)C(=O)N2 [PTG‐1] (H-RGGRLCYCRRRFCVCVGR-OH; disulfide 6-15, 8-13 (inferred); N-terminus and C-terminus assumed)","95% confidence intervals for EC50 values, Xen05","[1]; strain Xen05, 4 h",1.1 to 1.2 µg/mL
same,EC50 Xen05,"[1]; strain Xen05, 4 h, pH 7.4",1.1 µg/mL
same,"95% confidence intervals for EC50 values, H1001","[2]; strain H1001, 4 h",1.6 to 1.8 µg/mL
same,EC50 H1001,"[2]; strain H1001, 4 h, pH 7.4",1.7 µg/mL
same,Interaction with hLYS against mucoid strain Xen05,[3],synergy (FICI < 0.5 is defined as synergy)
same,Interaction with hLYS against nonmucoid strain H1001,[4],synergy (FICI < 0.5 is defined as synergy)
FAKKLAKKLKKLAKKLAK [HB71],"95% confidence intervals for EC50 values, Xen05",[1]; [5],1.4 to 1.8 µg/mL
same,EC50 Xen05,[1]; [6],1.6 µg/mL
same,EC50 H1001,[2]; [6],2.6 µg/mL
"GIINTLQKYYCRVRGGRCAVLSCLPKEEQIGKCSTRGRKCCRRKK (disulfide 11-40, 18-33, 23-41 (inferred)) [hBD3]","95% confidence intervals for EC50 values, Xen05","[1]; strain Xen05, 4 h",5.5 to 6.5 µg/mL
same,EC50 Xen05,"[1]; strain Xen05, 4 h, pH 7.4",6.0 µg/mL
same,"95% confidence intervals for EC50 values, H1001","[2]; strain H1001, 4 h",6.9 to 7.1 µg/mL
same,EC50 H1001,"[2]; strain H1001, 4 h, pH 7.4",7.0 µg/mL
same,Interaction with hLYS against mucoid strain Xen05,[3],additivity (0.5 ≤ FICI < 4 is defined as additivity)
same,Interaction with hLYS against nonmucoid strain H1001,[4],synergy (FICI < 0.5 is defined as synergy)
RRWKIVVIRWRR [Tet009],"95% confidence intervals for EC50 values, Xen05",[1]; [5],1.4 to 1.5 µg/mL
same,EC50 Xen05,[1]; [6],1.5 µg/mL
same,"95% confidence intervals for EC50 values, H1001",[2]; [7],2.5 to 2.9 µg/mL
same,EC50 H1001,[2]; [6],2.7 µg/mL
human lysozyme [hLYS],"95% confidence intervals for EC50 values, Xen05",[1]; [5],800 to 1200 µg/mL
same,EC50 Xen05,[1]; [6],990 µg/mL
same,"95% confidence intervals for EC50 values, H1001",[2]; [7],700 to 1100 µg/mL
same,EC50 H1001,[2]; [6],890 µg/mL
